According to the NIST ThermoML archive (doi:10.1021/je0498208):

Assay: xn = mol fraction of the nth substance listed
Details: Liquid; for viscosity: 101 kPa; for mass density: 101.3 kPa

O=CN1CCOCC1 [N-formylmorpholine] + O
Details | mass density [kg/m3] | viscosity [mPa·s]
298.15 K, x1 = 0.0499 | 1038.7 | 1.45
298.15 K, x1 = 0.1007 | 1067.03 | 2.22
298.15 K, x1 = 0.1976 | 1099.55 | 3.82
298.15 K, x1 = 0.3006 | 1117.88 | 5.05
298.15 K, x1 = 0.3917 | 1127.34 | 5.95
298.15 K, x1 = 0.5001 | 1134.34 | 6.53
298.15 K, x1 = 0.5834 | 1137.94 | 6.81
298.15 K, x1 = 0.6969 | 1141.28 | 7.25
298.15 K, x1 = 0.7942 | 1143.43 | 7.27
298.15 K, x1 = 0.9047 | 1145.19 | 7.53
298.15 K, x1 = 0.9493 | 1145.97 | 7.7
298.15 K, x1 = 1 | 1146.62 | 7.87
303.15 K, x1 = 0.0499 | 1036.24 | 1.29
303.15 K, x1 = 0.1007 | 1063.95 | 1.85
303.15 K, x1 = 0.1976 | 1095.78 | 3.33
303.15 K, x1 = 0.3006 | 1113.82 | 4.31
303.15 K, x1 = 0.3917 | 1123.11 | 5.04
303.15 K, x1 = 0.5001 | 1130.03 | 5.54
303.15 K, x1 = 0.5834 | 1133.6 | 5.79
303.15 K, x1 = 0.6969 | 1136.91 | 6.02
303.15 K, x1 = 0.7942 | 1139.05 | 6.21
303.15 K, x1 = 0.9047 | 1140.81 | 6.46
303.15 K, x1 = 0.9493 | 1141.6 | 6.62
303.15 K, x1 = 1 | 1142.26 | 6.75
313.15 K, x1 = 0.0499 | 1030.93 | 1.038
313.15 K, x1 = 0.1007 | 1057.44 | 1.52
313.15 K, x1 = 0.1976 | 1088.06 | 2.44
313.15 K, x1 = 0.3006 | 1105.52 | 3.23
313.15 K, x1 = 0.3917 | 1114.62 | 3.77
313.15 K, x1 = 0.5001 | 1121.35 | 4.19
313.15 K, x1 = 0.5834 | 1124.87 | 4.33
313.15 K, x1 = 0.6969 | 1128.16 | 4.55
313.15 K, x1 = 0.7942 | 1130.3 | 4.7
313.15 K, x1 = 0.9047 | 1132.07 | 4.9
313.15 K, x1 = 0.9493 | 1132.87 | 5.03
313.15 K, x1 = 1 | 1133.53 | 5.13
323.15 K, x1 = 0.0499 | 1025.15 | 0.854
323.15 K, x1 = 0.1007 | 1050.64 | 1.23
323.15 K, x1 = 0.1976 | 1080.16 | 1.95
323.15 K, x1 = 0.3006 | 1097.1 | 2.5
323.15 K, x1 = 0.3917 | 1105.98 | 2.88
323.15 K, x1 = 0.5001 | 1114.62 | 3.21
323.15 K, x1 = 0.5834 | 1116.08 | 3.35
323.15 K, x1 = 0.6969 | 1119.37 | 3.53
323.15 K, x1 = 0.7942 | 1121.52 | 3.67
323.15 K, x1 = 0.9047 | 1123.33 | 3.86
323.15 K, x1 = 0.9493 | 1124.14 | 4.01
323.15 K, x1 = 1 | 1124.82 | 4.03
333.15 K, x1 = 0.0499 | 1018.01 | 0.715
333.15 K, x1 = 0.1007 | 1043.55 | 1.018
333.15 K, x1 = 0.1976 | 1072.05 | 1.57
333.15 K, x1 = 0.3006 | 1088.55 | 2.1
333.15 K, x1 = 0.3917 | 1097.24 | 2.41
333.15 K, x1 = 0.5001 | 1103.8 | 2.65
333.15 K, x1 = 0.5834 | 1107.26 | 2.73
333.15 K, x1 = 0.6969 | 1110.55 | 2.84
333.15 K, x1 = 0.7942 | 1112.72 | 2.96
333.15 K, x1 = 0.9047 | 1114.57 | 3.2
333.15 K, x1 = 0.9493 | 1115.4 | 3.21
333.15 K, x1 = 1 | 1116.11 | 3.25
343.15 K, x1 = 0.0499 | 1011.38 | 0.67
343.15 K, x1 = 0.1007 | 1036.08 | 0.857
343.15 K, x1 = 0.1976 | 1063.72 | 1.27
343.15 K, x1 = 0.3006 | 1079.83 | 1.8
343.15 K, x1 = 0.3917 | 1088.36 | 2.05
343.15 K, x1 = 0.5001 | 1094.88 | 2.26
343.15 K, x1 = 0.5834 | 1098.33 | 2.33
343.15 K, x1 = 0.6969 | 1101.67 | 2.37
343.15 K, x1 = 0.7942 | 1103.88 | 2.52
343.15 K, x1 = 0.9047 | 1105.79 | 2.67
343.15 K, x1 = 0.9493 | 1106.66 | 2.67
343.15 K, x1 = 1 | 1107.39 | 2.68
